In patent US11370798B2 (Vertex Pharmaceuticals Incorporated, priority 2012, dated 2022):

Test system: HCT116 colorectal cancer cells
Test: Cisplatin sensitization assay (96 h cell viability MTS);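 note: Test-compound concentration that lowers the Cisplatin IC50 by a set fold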
Format: cell-based
Conditions: compound and Cisplatin added simultaneously, Cisplatin sensitization value
Outline: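 Viability read by MTS (1 h at 37° C) after 96 h co-exposure at 37° C, 5% CO2. Test compound and cisplatin were dosed simultaneously in a full concentration matrix, each 2-fold serially diluted from 10 μM final; sensitization values binned in μM.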

| Structure (SMILES) | Cisplatin Sensitization Assay |
| --- | --- |
| COCC1CN(c2ccncc2NC(=O)c2c(N)nn3cc(Cl)cnc23)CCN1C (stereo not drawn) [I-N-47, 2-amino-6-chloro-N-(4-(3-(methoxymethyl)-4-methylpiperazin-1-yl)pyridin-3-yl)pyrazolo[1,5-a]pyrimidine-3-carboxamide] | ++ (Cisplatin sensitization value>0.02 μM but <0.2 μM) |
| Nc1nn2cc(Cl)cnc2c1C(=O)Nc1cnccc1N1CCN(C2CCC2)CC1 [I-N-48, 2-amino-6-chloro-N-(4-(4-cyclobutylpiperazin-1-yl)pyridin-3-yl)pyrazolo[1,5-a]pyrimidine-3-carboxamide] | ++ (Cisplatin sensitization value>0.02 μM but <0.2 μM) |
| CN(C)CCN1CCN(c2ccncc2NC(=O)c2c(N)nn3cc(Cl)cnc23)CC1 [I-N-49, 2-amino-6-chloro-N-(4-(4-(2-(dimethylamino)ethyl)piperazin-1-yl)pyridin-3-yl)pyrazolo[1,5-a]pyrimidine-3-carboxamide] | +++ (Cisplatin sensitization value of <0.02 μM) |
| CN1CCN(c2cc(N)ncc2NC(=O)c2c(N)nn3cc(Cl)cnc23)CC1 [I-N-50, 2-amino-N-(6-amino-4-(4-methylpiperazin-1-yl)pyridin-3-yl)-6-chloropyrazolo[1,5-a]pyrimidine-3-carboxamide] | + (Cisplatin sensitization value>0.2 μM but <5 μM) |
| CN1CCN(c2cc(Cl)ncc2NC(=O)c2c(N)nn3cc(Cl)cnc23)CC1 [I-N-52, 2-amino-6-chloro-N-(6-chloro-4-(4-methylpiperazin-1-yl)pyridin-3-yl)pyrazolo[1,5-a]pyrimidine-3-carboxamide] | ++ (Cisplatin sensitization value>0.02 μM but <0.2 μM) |
| CN1CCN(c2ccncc2NC(=O)c2c(N)nn3cc(Cl)cnc23)CC1(C)C [I-N-53, 2-amino-6-chloro-N-(4-(3,3,4-trimethylpiperazin-1-yl)pyridin-3-yl)pyrazolo[1,5-a]pyrimidine-3-carboxamide] | ++ (Cisplatin sensitization value>0.02 μM but <0.2 μM) |
| CC1CN(c2ccncc2NC(=O)c2c(N)nn3cc(Cl)cnc23)CCN1C (stereo not drawn) [I-N-54, 2-amino-6-chloro-N-(4-(3,4-dimethylpiperazin-1-yl)pyridin-3-yl)pyrazolo[1,5-a]pyrimidine-3-carboxamide] | +++ (Cisplatin sensitization value of <0.02 μM) |
| Nc1nn2cc(Cl)cnc2c1C(=O)Nc1cnccc1N1CCCC(N)C1 (stereo not drawn) [I-N-55, 2-amino-N-(4-(3-aminopiperidin-1-yl)pyridin-3-yl)-6-chloropyrazolo[1,5-a]pyrimidine-3-carboxamide] | ++ (Cisplatin sensitization value>0.02 μM but <0.2 μM) |
| Nc1nn2cc(Cl)cnc2c1C(=O)Nc1cnccc1N1CCN2CCC1CC2 [I-N-56, N-(4-(1,4-diazabicyclo[3.2.2]nonan-4-yl)pyridin-3-yl)-2-amino-6-chloropyrazolo[1,5-a]pyrimidine-3-carboxamide] | ++ (Cisplatin sensitization value>0.02 μM but <0.2 μM) |
| Cc1cncc(NC(=O)c2c(N)nn3cc(Cl)cnc23)c1N1CCN(C)CC1 [I-N-57, 2-amino-6-chloro-N-(5-methyl-4-(4-methylpiperazin-1-yl)pyridin-3-yl)pyrazolo[1,5-a]pyrimidine-3-carboxamide] | +++ (Cisplatin sensitization value of <0.02 μM) |
| Nc1nn2cc(Cl)cnc2c1C(=O)Nc1cnccc1N1CCN(C2COC2)CC1 [I-N-58, 2-amino-6-chloro-N-(4-(4-(oxetan-3-yl)piperazin-1-yl)pyridin-3-yl)pyrazolo[1,5-a]pyrimidine-3-carboxamide] | ++ (Cisplatin sensitization value>0.02 μM but <0.2 μM) |
| CN1CCN(c2ccncc2NC(=O)c2c(N)nn3cc(Cl)cnc23)CC1 [I-N-59, 2-amino-6-chloro-N-(4-(4-methylpiperazin-1-yl)pyridin-3-yl)pyrazolo[1,5-a]pyrimidine-3-carboxamide] | ++ (Cisplatin sensitization value>0.02 μM but <0.2 μM) |
| COCCN1CCN(c2ccncc2NC(=O)c2c(N)nn3cc(Cl)cnc23)CC1 [I-N-60, 2-amino-6-chloro-N-(4-(4-(2-methoxyethyl)piperazin-1-yl)pyridin-3-yl)pyrazolo[1,5-a]pyrimidine-3-carboxamide] | +++ (Cisplatin sensitization value of <0.02 μM) |
| CN1CCN2CCN(c3ccncc3NC(=O)c3c(N)nn4cc(Cl)cnc34)CC2C1 (stereo not drawn) [I-N-61, 2-amino-6-chloro-N-(4-(8-methylhexahydro-1H-pyrazino[1,2-a]pyrazin-2(6H)-yl)pyridin-3-yl)pyrazolo[1,5-a]pyrimidine-3-carboxamide] | +++ (Cisplatin sensitization value of <0.02 μM) |
| CC1(N2CCN(c3ccncc3NC(=O)c3c(N)nn4cc(F)cnc34)CC2)COC1 [I-N-62, 2-amino-6-fluoro-N-(4-(4-(3-methyloxetan-3-yl)piperazin-1-yl)pyridin-3-yl)pyrazolo[1,5-a]pyrimidine-3-carboxamide] | ++ (Cisplatin sensitization value>0.02 μM but <0.2 μM) |
| CN1CCN(c2ccncc2NC(=O)c2c(N)nn3cc(Cl)cnc23)CC1CO (stereo not drawn) [I-N-63, 2-amino-6-chloro-N-(4-(3-(hydroxymethyl)-4-methylpiperazin-1-yl)pyridin-3-yl)pyrazolo[1,5-a]pyrimidine-3-carboxamide] | ++ (Cisplatin sensitization value>0.02 μM but <0.2 μM) |
| Nc1nn2cc(Cl)cnc2c1C(=O)Nc1cnccc1N1CCN(C2CC2)CC1 [I-N-64, 2-amino-6-chloro-N-(4-(4-cyclopropylpiperazin-1-yl)pyridin-3-yl)pyrazolo[1,5-a]pyrimidine-3-carboxamide] | +++ (Cisplatin sensitization value of <0.02 μM) |
| Nc1nn2cc(Cl)cnc2c1C(=O)Nc1cnccc1N1CCN2CCC[C@@H]2C1 [I-N-65, (R)-2-amino-6-chloro-N-(4-(hexahydropyrrolo[1,2-a]pyrazin-2(1H)-yl)pyridin-3-yl)pyrazolo[1,5-a]pyrimidine-3-carboxamide] | + (Cisplatin sensitization value>0.2 μM but <5 μM) |
| CC1(O)CCN(c2ccncc2NC(=O)c2c(N)nn3cc(Cl)cnc23)CC1 [I-N-66, 2-amino-6-chloro-N-(4-(4-hydroxy-4-methylpiperidin-1-yl)pyridin-3-yl)pyrazolo[1,5-a]pyrimidine-3-carboxamide] | +++ (Cisplatin sensitization value of <0.02 μM) |
| Nc1nn2cc(Cl)cnc2c1C(=O)Nc1cnccc1N1CCN(CC(F)(F)F)CC1 [I-N-67, 2-amino-6-chloro-N-(4-(4-(2,2,2-trifluoroethyl)piperazin-1-yl)pyridin-3-yl)pyrazolo[1,5-a]pyrimidine-3-carboxamide] | +++ (Cisplatin sensitization value of <0.02 μM) |
| Nc1nn2cc(Cl)cnc2c1C(=O)Nc1cnccc1N1CC[S+]([O-])CC1 [I-N-68, 2-amino-6-chloro-N-(4-(1-oxidothiomorpholino)pyridin-3-yl)pyrazolo[1,5-a]pyrimidine-3-carboxamide] | +++ (Cisplatin sensitization value of <0.02 μM) |
